From article PMC12040169 (PLOS Biology, 2025)

Test: in vitro
Settings: human, hela cells, % viability

| Compound | viability at 28.5 h, 10 µM [%] |
| --- | --- |
| COC(=O)c1sc2ncccc2c1NS(=O)(=O)c1cc(Br)c(Cl)s1 [CBK049973] | 112 |
| COC(=O)c1sc2ncccc2c1NS(=O)(=O)Cc1ccccc1[N+](=O)[O-] [CBK049974] | 102 |
| COc1ccc(Br)cc1S(=O)(=O)Nc1c(C(=O)O)sc2ncccc12 [CBK049978] | 88 |
| COc1ccc(S(=O)(=O)Nc2c(C(=O)O)sc3ncccc23)cc1OC [CBK049979] | 87.3 |
| Cc1noc(C)c1S(=O)(=O)Nc1c(C(=O)O)sc2ncccc12 [CBK049988] | 99.5 |
| CCN(CC)C(=O)c1sc2ncccc2c1NS(=O)(=O)Cc1ccccc1[N+](=O)[O-] [CBK050022] | 92.1 |
| Cc1ccc(S(=O)(=O)Nc2c(C(=O)N3CCN(C)CC3)sc3ncccc23)cc1[N+](=O)[O-] [CBK050025] | 91.2 |
| CN1CCN(C(=O)c2[nH]c3ccccc3c2NS(=O)(=O)c2cccc3cccnc23)CC1 [CBK050041] | 87.2 |
| CN1CCN(C(=O)c2[nH]c3ccccc3c2NS(=O)(=O)Cc2ccccc2)CC1 [CBK050046] | 93.9 |
| CN1CCN(C(=O)c2[nH]c3ccccc3c2NS(=O)(=O)c2cc(F)c(Br)cc2F)CC1 [CBK050051] | 90.5 |
| CN1CCN(C(=O)c2[nH]c3ccccc3c2NS(=O)(=O)Cc2ccccc2[N+](=O)[O-])CC1 [CBK050059] | 92.6 |
| Cc1ccc(S(=O)(=O)Nc2c(C(=O)N3CCN(C)CC3)[nH]c3ccccc23)cc1[N+](=O)[O-] [CBK050060] | 90.1 |
| O=C(c1[nH]c2ccccc2c1NS(=O)(=O)/C=C/c1ccccc1)N1CCOCC1 [CBK050068] | 93.1 |
| O=C(c1[nH]c2ccccc2c1NS(=O)(=O)Cc1ccccc1[N+](=O)[O-])N1CCOCC1 [CBK050079] | 107 |
| O=C(Nc1ccc(F)cc1)c1[nH]c2ccccc2c1NS(=O)(=O)c1ccc(Cl)c(Cl)c1Cl [CBK050091] | 86.7 |
| COc1ccc(Br)cc1S(=O)(=O)Nc1c(C(=O)Nc2ccc(F)cc2)[nH]c2ccccc12 [CBK050095] | 88.2 |
| CCN(CC)C(=O)c1[nH]c2ccccc2c1NS(=O)(=O)c1ccc(F)cc1 [CBK050105] | 94.1 |
| CCN(CC)C(=O)c1[nH]c2ccccc2c1NS(=O)(=O)c1cc(Br)ccc1OC [CBK050113] | 92.6 |
| CC(C)(C)Cc1nnc(N)s1 [CBK050161] | 92.6 |
| CC(C)c1nnc(NS(=O)(=O)c2ccc(N)cc2)s1 [CBK050163] | 101 |
| Cc1ccc(S(N)(=O)=O)cc1NC(=O)c1ccc[nH]1 [CBK050200] | 91.2 |
| O=C(CCCc1ccccc1)Nc1c(F)cc(F)cc1OC1CCNCC1 [CBK050222T] | 96.1 |

| Compound | viability at 28.5 h, 10 µM [%] |
| --- | --- |
| O=C(Nc1ccccc1OC1CCNCC1)c1ccccc1 [CBK050238T] | 115 |
| COc1cc(F)cc(OC2CCNCC2)c1NC(=O)C1(c2ccccc2)CCCCC1 [CBK050241T] | 107 |
| COc1cc(F)cc(OC2CCNCC2)c1NC(=O)Cc1c[nH]c2ccccc12 [CBK050246T] | 91 |
| COc1ccc(CCCC(=O)Nc2c(C)nn(C)c2N2CCNCC2)cc1OC [CBK050252T] | 93 |
| Cc1nn(C)c(N2CCNCC2)c1NC(=O)Cc1c[nH]c2ccccc12 [CBK050256T] | 97.1 |
| Cc1nn(C)c(N2CCNCC2)c1NC(=O)c1ccccc1 [CBK050257T] | 99 |
| O=C(Nc1c(F)cc(F)cc1OC1CCNCC1)c1cnccn1 [CBK050273T] | 100 |
| O=C(Nc1c(F)cc(F)cc1OC1CCNCC1)c1ccccn1 [CBK050274T] | 94.8 |
| O=C(Nc1c(F)cc(F)cc1OC1CCNCC1)c1cccnc1 [CBK050275T] | 100 |
| COc1ccc(C(=O)Nc2ccccc2OC2CCNCC2)cc1 [CBK050282T] | 85 |
| COc1ccc(C(=O)Nc2c(OC)cc(F)cc2OC2CCNCC2)cc1 [CBK050294T] | 97 |
| Cc1nn(C)c(N2CCNCC2)c1NC(=O)c1cccn1C [CBK050309T] | 94.8 |
| O=C(/C=C/c1cccnc1)Nc1c(F)cc(F)cc1OC1CCNCC1 [CBK050324T] | 90.5 |
| Cn1cc(C(=O)Nc2c(F)cc(F)cc2OC2CCNCC2)c2ccccc21 [CBK050328T] | 89.1 |
| COc1cc(F)cc(OC2CCNCC2)c1NC(=O)c1coc2c1C(=O)CCC2 [CBK050351T] | 91.5 |
| COc1cc(F)cc(OC2CCNCC2)c1NC(=O)C1=CC(=O)CC(C)(C)O1 [CBK050352T] | 96.9 |
| COc1ccc(/C=C(\C)C(=O)Nc2c(OC)cc(F)cc2OC2CCNCC2)cc1OC [CBK050353T] | 98.6 |
| Cc1nn(C)c(N2CCNCC2)c1NC(=O)/C=C/c1cccnc1 [CBK050354T] | 95.4 |
| Cc1nn(C)c(N2CCNCC2)c1NC(=O)C1=CC(=O)CC(C)(C)O1 [CBK050362T] | 99.9 |
| O=c1c(N2CCNCC2)nccn1CCc1cccs1 [CBK050382T] | 89.3 |
| COCCn1c(-c2ccc(CN3CCCC3)cc2)cc2onc(C)c2c1=O [CBK050385C] | 104 |
| CCN(CC)C(=O)c1sccc1NS(=O)(=O)Cc1ccccc1[N+](=O)[O-] [CBK050396] | 97 |

| Compound | viability at 28.5 h, 10 µM [%] |
| --- | --- |
| O=C(Nc1ccc(F)cc1)c1ccc(NS(=O)(=O)c2ccc(Br)cc2)cc1 [CBK050400] | 103 |
| CC(=O)Nc1ccc(S(=O)(=O)Nc2ccc(C(=O)Nc3ccc(F)cc3)cc2)cc1 [CBK050401] | 111 |
| CC(=O)Nc1ccc(S(=O)(=O)Nc2ccc(C(=O)N3CCN(C)CC3)cc2)cc1 [CBK050406] | 93.1 |
| CC(=O)Nc1ccc(S(=O)(=O)Nc2cccc(C(=O)O)c2)cc1 [CBK050407] | 98.7 |
| CN1CCN(C(=O)c2c(NS(=O)(=O)/C=C/c3ccccc3)sc3c2CCCC3)CC1 [CBK050417] | 94.3 |
| CN1CCN(C(=O)c2c(NS(=O)(=O)c3cc(F)c(Br)cc3F)sc3c2CCCC3)CC1 [CBK050419] | 90.5 |
| O=C(c1sccc1NS(=O)(=O)c1ccc(Oc2ccccc2)cc1)N1CCOCC1 [CBK050423] | 95.3 |
| CC(=O)Nc1ccc(S(=O)(=O)Nc2ccc(C(=O)O)cc2)cc1 [CBK050427] | 91.3 |
| Cc1ccc(S(N)(=O)=O)cc1C(=O)Nc1nncs1 [CBK050456] | 105 |
| O=S(=O)(Nc1nnn[nH]1)c1ccc(F)cc1 [CBK050473] | 104 |
| O=S(=O)(Nc1ccc(-c2csnn2)cc1)c1ccc(F)cc1 [CBK050482] | 92.1 |
| Cc1nc(NS(=O)(=O)c2c(C)noc2C)sc1C(=O)Nc1ccc(F)cc1 [CBK050551] | 113 |
| CCOC(=O)c1ccccc1NS(=O)(=O)c1ccc(C(F)(F)F)cc1[N+](=O)[O-] [CBK050584] | 96.2 |
| CCOC(=O)c1ccccc1NS(=O)(=O)Cc1ccccc1[N+](=O)[O-] [CBK050594] | 92.3 |
| Cc1ccc(S(=O)(=O)NCC(=O)N2CCOCC2)cc1[N+](=O)[O-] [CBK050597] | 98.1 |
| CCN(CC)C(=O)c1sc2ncccc2c1NS(=O)(=O)c1ccc(C)c([N+](=O)[O-])c1 [CBK050618] | 112 |
| O=C(O)c1sc2ncccc2c1NS(=O)(=O)c1ccc(C(F)(F)F)cc1[N+](=O)[O-] [CBK050647] | 118 |
| O=C(O)c1sc2ncccc2c1NS(=O)(=O)c1cc(Cl)sc1Cl [CBK050650] | 78.2 |
| CCCc1ccc(S(=O)(=O)Nc2c(C(=O)OC)sc3ncccc23)cc1 [CBK050653] | 87.2 |
| CC(=O)Nc1cccc(-c2nccnc2NS(C)(=O)=O)c1 [CBK050740] | 108 |
| O=S(=O)(Nc1nccnc1-c1cccs1)C1CC1 [CBK050764] | 93.9 |
| CC(C)(C)S(=O)(=O)Nc1nccnc1-c1cccs1 [CBK050765] | 107 |

| Compound | viability at 28.5 h, 10 µM [%] |
| --- | --- |
| O=S(=O)(Nc1nccnc1-c1cccs1)c1ccccc1Cl [CBK050775] | 94.9 |
| CN(C)c1ccc(-c2nccnc2NS(=O)(=O)Cc2cccc(Cl)c2)cc1 [CBK050787] | 102 |
| CN(C)c1ccc(-c2nccnc2NS(=O)(=O)c2ccccc2C(F)(F)F)cc1 [CBK050801] | 92.8 |
| COc1ccc(S(=O)(=O)Nc2nccnc2-c2ccc3[nH]ccc3c2)cc1 [CBK050805] | 91.6 |
| c1cnc(-c2nnn[nH]2)c(-c2ccc(COc3ccc4c(c3)OCO4)cc2)n1 [CBK050812] | 107 |
| c1ccc(-c2ccno2)c(OCc2ccc(-c3nccnc3-c3nnn[nH]3)cc2)c1 [CBK050817] | 93.6 |
| c1ccc2cc(OCc3ccc(-c4nccnc4-c4nnn[nH]4)cc3)ccc2c1 [CBK050818] | 93.9 |
| c1ccc2c(c1)ccn2Cc1ccc(-c2nccnc2-c2nnn[nH]2)cc1 [CBK050821] | 107 |
| CN(C)C(=O)c1nccnc1-c1ccc(COc2ccc3c(c2)OCO3)cc1 [CBK050829] | 91.1 |
| O=C(Nc1ccc2c(c1)OCO2)c1nccnc1-c1ccc(COc2ccccc2)cc1 [CBK050834] | 109 |
| O=C(Nc1ccccn1)c1nccnc1-c1ccc(COc2ccccc2)cc1 [CBK050835] | 86.1 |
| O=C(NCc1ccco1)c1nccnc1-c1ccc(COc2ccc3c(c2)CCCC3)cc1 [CBK050851] | 89.8 |
| CC(C)(C)S(=O)(=O)Nc1nccnc1-c1ccc(OCc2ccccc2)cc1 [CBK050886] | 89.4 |
| O=S(=O)(Nc1nccnc1-c1ccc2c(c1)OCO2)c1ccc(Cl)cc1 [CBK050952] | 92.4 |
| N#CCn1c(-c2nonc2N)nc2ccccc21 [CBK050974] | 92.3 |
| CC(C)c1ccc(S(=O)(=O)N2CC3CC2CO3)cc1 (stereo not shown) [CBK050999] | 97.3 |
| COc1cc([C@@H]2c3cc4c(cc3[C@H](O)[C@H]3COC(=O)[C@@H]23)OCO4)cc(OC)c1OC [CBK051004] | 36.3 |
| O=S(=O)(Nc1cccnc1N1CCOCC1)c1ccc(F)cc1 [CBK051009] | 96.4 |
| N#Cc1c[nH]nc1NS(=O)(=O)c1ccc(F)cc1 [CBK051018] | 106 |
